# Results from patent EP4670739A1, “ALBUMIN CONJUGATE, METHOD FOR PRODUCING SAME, AND COMPOSITION FOR TARGETING, DIAGNOSING, OR TREATING CANCER COMPRISING SAME” (Kytecbio Co., Ltd., priority 2023, dated 2024).
# Assay: ROS production according to lysine concentration
# Conditions: 10 µM B3 mixed with about 1.0 mM monomeric lysine, PBS pH 7.4, light of about 530 nm
# Experimental: • i) 1.0 mM lysine (hereinafter, Lys) was mixed in PBS buffer solution (pH 7.4) and irradiated with light of about 530 nm. The fluorescence generated over time was measured using a Scinco FS-2, and results thereof are shown in FIG. 7A. • ii) The result of mixing 10 µM boron-containing compound B3 instead of the 1.0 mM lysine (Lys) is shown in FIG. 7B, iii) the result of mixing 10 µM boron-containing compound B3 and 0.1 mM lysine (Lys) instead of the 1.0 mM lysine (Lys) is shown in FIG. 7C, and iv) the result of mixing 10 µM boron-containing compound B3 and 1.0 mM lysine (Lys) instead of the 1.0 mM lysine (Lys) is shown in FIG. 7D.
smiles,measurement,value
O=Cc1cc2ccccc2cc1NCc1ccccc1B(O)O [B3],reactive oxygen species generated,relatively large amount
